Test results published in patent publication EP0971917B1, “THIAZOLIDINEDIONE AND OXAZOLIDINEDIONE DERIVATIVES HAVING ANTIDIABETIC, HYPOLIPIDAEMIC AND ANTIHYPERTENSIVE PROPERTIES” (DR. REDDY'S RESEARCH FOUNDATION, priority 1997, dated 1998).

Test system: C57BL/KsJ-db/db mice
Experiment: Blood sugar and triglycerides lowering activity in db/db mice (in vivo)
Details: male C57BL/KsJ-db/db mice, 10 mg/kg/day, oral gavage daily for 6 days; for Maximum reduction in blood glucose level (%): plasma glucose, glucose oxidase method; for Triglyceride lowering (%): plasma triglycerides
From the text: Mutation in colonies of laboratory animals and different sensitivities to dietary regimens have made the development of animal models with non-insulin dependent diabetes associated with obesity and insulin resistance possible. Genetic models such as db/db and ob/ob (See Diabetes, (1982) 31(1) : 1- 6) in mice and fa/fa and zucker rats have been developed by the various laboratories for understanding the pathophysiology of disease and testing the efficacy of new antidiabetic compounds (Diabetes, (1983) 32: 830-838; Annu. Rep. Sankyo Res. Lab. (1994) 46 : 1-57). The homozygous animals, C57 BL/KsJ-db/db mice developed by Jackson Laboratory, US, are obese, hyperglycemic, hyperinsulinemic and insulin resistant (J. Clin. Invest., (1990) 85 : 962-967), whereas heterozygous are lean and normoglycemic. In db/db model, mouse progressively develops insulinopenia with age, a feature commonly observed in late stages of human type II diabetes when blood sugar levels are insufficiently controlled. The state of pancreas and its course vary according to the models. Since this model resembles that of type II diabetes mellitus, the compounds of the present invention were tested for blood sugar and triglycerides lowering activities.
Male C57BL/KsJ-db/db mice of 8 to 14 weeks age, having body weight range of 35 to 60 grams, procured from the Jackson Laboraotory, USA, were used in the experiment The mice were provided with standard feed (National Institute of Nutrition, Hyderabad, India) and acidified water, ad libitum. The animals having more than 300 mg / dl blood sugar were used for testing. The number of animals in each group was 4.
The random blood sugar and triglyceride levels were measured by collecting blood (100 µl) through orbital sinus, using heparinised capillary in tubes containing EDTA which was centrifuged to obtain plasma. The plasma glucose and triglycerides levels were measured spectrometrically, by glucose oxidase and glycerol-3-PO4 oxidase/peroxidase enzyme (Dr. Reddy's Lab. Diagnostic Division Kits, Hyderabad, India) methods respectively. On 6th day the blood samples were collected one hour after administration of test compounds / vehicle for assessing the biological activity.
Test compounds were suspended on 0.25 % carboxymethyl cellulose and administered to test group at a dose of 10 mg to 100 mg / kg through oral gavage daily for 6 days. The control group received vehicle (dose 10 ml / kg).

| SMILES | Maximum reduction in blood glucose level (%) | Triglyceride lowering (%) |
| --- | --- | --- |
| Cc1nn(CCOc2ccc(CC3SC(=O)NC3=O)cc2)c(=O)c2ccccc12 (stereo not shown) [Example 6, 5-[4-[2-[4-Methyl-1-oxo-1,2-dihydro-phthalazin-2-yl]ethoxy]phenylmethyl] thiazolidin-2,4-dione] | 61% | 40% |
| O=C1NC(=O)C(=Cc2ccc(OCCN3OCc4ccccc4C3=O)cc2)S1 [Example 11, 5-[4-[2-[4-Oxo-3,4-dihydro-1H-2,3-benzoxazin-3-yl]ethoxy]phenylmethylene]thiazolidin-2,4-dione] | 37% | 60% |
